According to ChEMBL document CHEMBL1139746, “Enzyme inhibition potency enhancement by active site metal chelating and hydrogen bonding induced conformation-restricted cyclopropanecarbonyl derivatives” (Bioorg Med Chem Lett, 2006):

Tests used:
[1] = molecular target: Dihydroorotate dehydrogenase (quinone), mitochondrial (Rattus norvegicus, UniProt Q63707); assay: Inhibition of rat DHODH
[2] = molecular target: 4-hydroxyphenylpyruvate dioxygenase (Sus scrofa, UniProt Q02110); assay: Inhibition of pig HPPD
4-hydroxyphenylpyruvate dioxygenase, sequence (Q02110 whole entry): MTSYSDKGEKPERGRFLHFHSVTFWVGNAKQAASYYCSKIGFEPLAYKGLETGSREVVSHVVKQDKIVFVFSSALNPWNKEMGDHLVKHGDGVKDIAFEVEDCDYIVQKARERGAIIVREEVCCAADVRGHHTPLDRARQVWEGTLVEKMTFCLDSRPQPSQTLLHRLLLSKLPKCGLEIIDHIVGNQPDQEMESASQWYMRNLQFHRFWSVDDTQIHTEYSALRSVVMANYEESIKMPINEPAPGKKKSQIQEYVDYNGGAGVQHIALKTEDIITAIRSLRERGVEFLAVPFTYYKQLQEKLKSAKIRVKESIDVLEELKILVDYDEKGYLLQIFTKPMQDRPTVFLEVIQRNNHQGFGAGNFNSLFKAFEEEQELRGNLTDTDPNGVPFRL

Dihydroorotate dehydrogenase (quinone), mitochondrial, sequence (Q63707 whole entry): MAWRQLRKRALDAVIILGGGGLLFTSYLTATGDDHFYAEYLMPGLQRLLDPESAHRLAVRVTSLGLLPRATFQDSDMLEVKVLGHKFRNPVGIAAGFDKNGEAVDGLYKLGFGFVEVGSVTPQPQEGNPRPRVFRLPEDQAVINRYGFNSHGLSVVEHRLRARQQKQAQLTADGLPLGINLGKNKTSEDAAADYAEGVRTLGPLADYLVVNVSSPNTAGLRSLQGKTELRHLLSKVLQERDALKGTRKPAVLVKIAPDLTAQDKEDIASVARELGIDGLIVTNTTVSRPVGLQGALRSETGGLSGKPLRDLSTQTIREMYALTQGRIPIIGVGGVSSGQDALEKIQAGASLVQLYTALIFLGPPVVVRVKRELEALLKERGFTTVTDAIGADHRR

SMILES | IC50 [1] [µM] | IC50 [2] [µM]
CC(C)/C(O)=C(\C#N)C(=O)Nc1ccc(C(F)(F)F)cc1 | 0.295 | 
O=C(c1c(O)c2ccccc2oc1=O)C1CC1 |  | 322
O=C1CCCC(O)=C1C(=O)C1CCC1 |  | 21
O=C1CCCC(O)=C1C(=O)C1CCCC1 |  | 33.1
